Reference: BindingDB's records for doi:10.1016/j.bmcl.2013.05.031 (Second Military Medical University, 2013)

These compounds were tested against Acrosin (Homo sapiens, UniProt P10323) (assay: Inhibition of human sperm acrosin using BAPNA as substrate after 3 hrs by spectrophotometric analysis).
Sequence of Acrosin (P10323 20-42 limits assumed): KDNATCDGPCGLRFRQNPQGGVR
Sequence of Acrosin (P10323 43-343 limits assumed): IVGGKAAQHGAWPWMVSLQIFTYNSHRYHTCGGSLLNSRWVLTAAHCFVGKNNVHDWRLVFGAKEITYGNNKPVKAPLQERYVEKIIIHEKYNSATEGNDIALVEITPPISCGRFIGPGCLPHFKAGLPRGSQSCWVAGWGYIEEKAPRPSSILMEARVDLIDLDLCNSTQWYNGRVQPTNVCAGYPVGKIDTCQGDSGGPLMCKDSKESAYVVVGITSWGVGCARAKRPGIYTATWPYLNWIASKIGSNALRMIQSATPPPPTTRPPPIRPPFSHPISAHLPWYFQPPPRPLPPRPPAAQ
An IC50 of 1700 µM was found for `O=C(c1cc(-c2ccccc2)[nH]n1)N(CCO)CCO` in this work.
An IC50 of 10000 µM was found for `O=C(NCCOCCO)c1cc(-c2ccc(Br)cc2)[nH]n1` in this work.
An IC50 of 2700 µM was found for `O=C(NCCO)c1cc(-c2ccc([N+](=O)[O-])cc2)n[nH]1` in this work.
An IC50 of 790 µM was found for `CN(CCO)C(=O)c1cc(-c2cccc([N+](=O)[O-])c2)n[nH]1` in this work.
An IC50 of 3000 µM was found for `CC(CO)NC(=O)c1cc(-c2ccccc2)[nH]n1` (stereo not drawn) in this work.
An IC50 of 780 µM was found for `O=C(NCCCO)c1cc(-c2cccc([N+](=O)[O-])c2)[nH]n1` in this work.
An IC50 of 6020 µM was found for `COc1ccc(-c2cc(C(=O)NCCOCCO)[nH]n2)cc1` in this work.
An IC50 of 90 µM was found for `COc1ccc(-c2cc(C(=O)NCCO)[nH]n2)cc1` in this work.
An IC50 of 1830 µM was found for `CC(O)CNC(=O)c1cc(-c2cccc([N+](=O)[O-])c2)n[nH]1` (stereo not drawn) in this work.
An IC50 of 2070 µM was found for `O=C(NCCOCCO)c1cc(-c2ccc([N+](=O)[O-])cc2)n[nH]1` in this work.
An IC50 of 5600 µM was found for `O=C(c1cc(-c2ccc([N+](=O)[O-])cc2)n[nH]1)N(CCO)CCO` in this work.
An IC50 of 540 µM was found for `O=C(NCCCO)c1cc(-c2ccccc2)[nH]n1` in this work.
An IC50 of 940 µM was found for `O=C(NC(CO)(CO)CO)c1cc(-c2ccccc2)n[nH]1` in this work.
An IC50 of 2950 µM was found for `CC(O)CNC(=O)c1cc(-c2ccc([N+](=O)[O-])cc2)[nH]n1` (stereo not drawn) in this work.
An IC50 of 2800 µM was found for `O=C(NCCO)c1cc(-c2ccccc2)n[nH]1` in this work.
An IC50 of 2000 µM was found for `CN(CCO)C(=O)c1cc(-c2ccc([N+](=O)[O-])cc2)n[nH]1` in this work.
An IC50 of 9100 µM was found for `O=C(NCCOCCO)c1cc(-c2cccc([N+](=O)[O-])c2)n[nH]1` in this work.
An IC50 of 60 µM was found for `CC(O)CNC(=O)c1cc(-c2ccccc2)[nH]n1` (stereo not drawn) in this work.
An IC50 of 2400 µM was found for `O=C(c1cc(-c2cccc([N+](=O)[O-])c2)n[nH]1)N(CCO)CCO` in this work.
An IC50 of 380 µM was found for `O=C(NCCCO)c1cc(-c2ccc(Br)cc2)[nH]n1` in this work.
An IC50 of 1520 µM was found for `O=C(c1cc(-c2ccc(Br)cc2)n[nH]1)N(CCO)CCO` in this work.
An IC50 of 10 µM was found for `CC(O)CN(CC(C)O)C(=O)c1cc(-c2ccccc2)[nH]n1` (stereo not drawn) in this work.
An IC50 of 1210 µM was found for `CC(O)CN(CC(C)O)C(=O)c1cc(-c2ccc([N+](=O)[O-])cc2)n[nH]1` (stereo not drawn) in this work.
An IC50 of 760 µM was found for `O=C(NCCO)c1cc(-c2cccc([N+](=O)[O-])c2)[nH]n1` in this work.
An IC50 of 5220 µM was found for `O=C(NC(CO)(CO)CO)c1cc(-c2ccc([N+](=O)[O-])cc2)[nH]n1` in this work.
An IC50 of 530 µM was found for `O=C(NCCO)c1cc(-c2ccc(Br)cc2)[nH]n1` in this work.
An IC50 of 880 µM was found for `CC(CO)NC(=O)c1cc(-c2ccc(Br)cc2)n[nH]1` (stereo not drawn) in this work.
An IC50 of 330 µM was found for `CC(O)CNC(=O)c1cc(-c2ccc(Br)cc2)n[nH]1` (stereo not drawn) in this work.
An IC50 of 410 µM was found for `COc1ccc(-c2cc(C(=O)N(C)CCO)n[nH]2)cc1` in this work.
An IC50 of 760 µM was found for `O=C(NC(CO)(CO)CO)c1cc(-c2cccc([N+](=O)[O-])c2)[nH]n1` in this work.
An IC50 of 390 µM was found for `O=Cc1cc(-c2ccc(Cl)cc2Cl)on1` in this work.
An IC50 of 1870 µM was found for `CC(C)(CO)NC(=O)c1cc(-c2ccc([N+](=O)[O-])cc2)n[nH]1` in this work.
An IC50 of 3070 µM was found for `O=C(NCCCO)c1cc(-c2ccc([N+](=O)[O-])cc2)[nH]n1` in this work.
